Data from ChEMBL document CHEMBL1201861, “Genomics of Drug Sensitity in Cancer screening data, Wellcome Trust Sanger Institute”.

Experiments:
Test in all cases: cells
[1] = test system: HuO-3N1; type: functional, cell-based, Homo sapiens; conditions: Homo sapiens, HuO-3N1;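 further: cell viability readout used to measure how strongly compounds suppress proliferation of human HuO-3N1 cells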
Description: SANGER: Inhibition of human HuO-3N1 cell growth in a cell viability assay.

[2] = test system: NCI-H1993; type: functional, cell-based, Homo sapiens; conditions: Homo sapiens, NCI-H1993;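 further: growth inhibition of the cancer cell line, assessed with a cell viability assay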
Description: SANGER: Inhibition of human NCI-H1993 cell growth in a cell viability assay.

[3] = test system: ATN-1; type: functional, cell-based; conditions: Homo sapiens;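 further: growth inhibition of human ATN-1 cells, read out with a cell viability assay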
Description: SANGER: Inhibition of human ATN-1 cell growth in a cell viability assay.

[4] = test system: DB; type: functional, cell-based; conditions: Homo sapiens
Description: SANGER: Inhibition of human DB cell growth in a cell viability assay.

[5] = test system: L-428; type: functional, cell-based; conditions: Homo sapiens
Description: SANGER: Inhibition of human L-428 cell growth in a cell viability assay.

[6] = test system: ASPC1; type: functional, cell-based, Homo sapiens; conditions: Homo sapiens, ASPC1;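 further: growth inhibition of AsPC-1 cells, read out with a cell viability assay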
Description: SANGER: Inhibition of human AsPC-1 cell growth in a cell viability assay.

[7] = test system: PSN1; type: functional, cell-based, Homo sapiens; conditions: Homo sapiens, PSN1;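 further: suppression of growth of human PSN1 cells, read out by a cell viability assay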
Description: SANGER: Inhibition of human PSN1 cell growth in a cell viability assay.

[8] = test system: UMUC3; type: functional, cell-based, Homo sapiens; conditions: Homo sapiens, UMUC3;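 further: growth inhibition of human UM-UC-3 cells, read out with a cell viability assay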
Description: SANGER: Inhibition of human UM-UC-3 cell growth in a cell viability assay.

[9] = test system: COLO-800; type: functional, cell-based, Homo sapiens; conditions: Homo sapiens, COLO-800;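 further: growth inhibition of COLO-800 cells, read out with a cell viability assay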
Description: SANGER: Inhibition of human COLO-800 cell growth in a cell viability assay.

[10] = test system: HCC1187; type: functional, cell-based, Homo sapiens; conditions: Homo sapiens, HCC1187;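 further: growth inhibition of HCC1187 cells, read out with a cell viability assay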
Description: SANGER: Inhibition of human HCC1187 cell growth in a cell viability assay.

[11] = test system: SNU-387; type: functional, cell-based, Homo sapiens; conditions: Homo sapiens, SNU-387
Description: SANGER: Inhibition of human SNU-387 cell growth in a cell viability assay.

[12] = test system: UACC-257; type: functional, cell-based, Homo sapiens; conditions: Homo sapiens, UACC-257
Description: SANGER: Inhibition of human UACC-257 cell growth in a cell viability assay.

[13] = test system: A 172; type: functional, cell-based, Homo sapiens; conditions: Homo sapiens, A 172;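 further: growth inhibition of A172 cells, measured with a cell viability readout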
Description: SANGER: Inhibition of human A172 cell growth in a cell viability assay.

[14] = test system: OVCAR-8; type: functional, cell-based, Homo sapiens; conditions: Homo sapiens, OVCAR-8;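 further: growth inhibition of human OVCAR-8 cells, read out by a cell viability assay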
Description: SANGER: Inhibition of human OVCAR-8 cell growth in a cell viability assay.

[15] = test system: KY821; type: functional, cell-based; conditions: Homo sapiens;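 further: growth inhibition of human KY821 cells, read out by a cell viability assay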
Description: SANGER: Inhibition of human KY821 cell growth in a cell viability assay.

[16] = test system: UACC-62; type: functional, cell-based, Homo sapiens; conditions: Homo sapiens, UACC-62;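 further: growth inhibition of human UACC-62 cells, read out by a cell viability assay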
Description: SANGER: Inhibition of human UACC-62 cell growth in a cell viability assay.

[17] = test system: LS-411N; type: functional, cell-based, Homo sapiens; conditions: Homo sapiens, LS-411N
[18] = test system: NCI-H2342; type: functional, cell-based; conditions: Homo sapiens;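 further: growth inhibition of the cancer cell line, determined with a cell viability assay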
Description: SANGER: Inhibition of human NCI-H2342 cell growth in a cell viability assay.

[19] = test system: LNCaP-Clone-FGC; type: functional, cell-based, Homo sapiens; conditions: Homo sapiens, LNCaP-Clone-FGC
Description: SANGER: Inhibition of human LNCaP-Clone-FGC cell growth in a cell viability assay.

[20] = test system: JVM-3; type: functional, cell-based; conditions: Homo sapiens;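 further: growth inhibition of human JVM-3 cells, read out with a cell viability assay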
Description: SANGER: Inhibition of human JVM-3 cell growth in a cell viability assay.

[21] = test system: DJM-1; type: functional, cell-based, Homo sapiens; conditions: Homo sapiens, DJM-1;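 further: growth inhibition of human DJM-1 cells, read out by a cell viability assay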
Description: SANGER: Inhibition of human DJM-1 cell growth in a cell viability assay.

[22] = test system: NCI-H1651; type: functional, cell-based, Homo sapiens; conditions: Homo sapiens, NCI-H1651;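 further: Read-out is a cell viability assay, with IC50 expressing inhibition of NCI-H1651 cell growth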
Description: SANGER: Inhibition of human NCI-H1651 cell growth in a cell viability assay.

[23] = test system: LS-513; type: functional, cell-based, Homo sapiens; conditions: Homo sapiens, LS-513
Description: SANGER: Inhibition of human LS-513 cell growth in a cell viability assay.

[24] = test system: HDLM-2; type: functional, cell-based; conditions: Homo sapiens;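 further: cell viability assay measuring suppression of HDLM-2 proliferation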
Description: SANGER: Inhibition of human HDLM-2 cell growth in a cell viability assay.

[25] = test system: VMRC-RCZ; type: functional, cell-based; conditions: Homo sapiens;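 further: growth inhibition measured with a cell viability assay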
Description: SANGER: Inhibition of human VMRC-RCZ cell growth in a cell viability assay.

[26] = test system: MHH-PREB-1; type: functional, cell-based; conditions: Homo sapiens;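 further: cell viability assay measuring inhibition of proliferation of human MHH-PREB-1 cells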
Description: SANGER: Inhibition of human MHH-PREB-1 cell growth in a cell viability assay.

[27] = test system: K562; type: functional, cell-based; conditions: Homo sapiens
Description: SANGER: Inhibition of human K-562 cell growth in a cell viability assay.

[28] = test system: ES5; type: functional, cell-based, Homo sapiens; conditions: Homo sapiens, ES5;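 further: growth inhibition of human ES5 cells, read out by a cell viability assay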
Description: SANGER: Inhibition of human ES5 cell growth in a cell viability assay.

[29] = test system: EW-11; type: functional, cell-based, Homo sapiens; conditions: Homo sapiens, EW-11;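 further: growth inhibition of human EW-11 cells, measured with a cell viability assay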
Description: SANGER: Inhibition of human EW-11 cell growth in a cell viability assay.

[30] = test system: NCI-H1770; type: functional, cell-based; conditions: Homo sapiens;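 further: growth inhibition of NCI-H1770 cells determined with a viability readout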
Description: SANGER: Inhibition of human NCI-H1770 cell growth in a cell viability assay.

[31] = test system: FaDu; type: functional, cell-based, Homo sapiens; conditions: Homo sapiens, FaDu;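 further: cell viability readout of growth inhibition in FaDu cells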
Description: SANGER: Inhibition of human FADU cell growth in a cell viability assay.

[32] = test system: NOMO-1; type: functional, cell-based; conditions: Homo sapiens;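 further: growth inhibition of human NOMO-1 cells measured by a cell viability assay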
Description: SANGER: Inhibition of human NOMO-1 cell growth in a cell viability assay.

[33] = test system: TE-5; type: functional, cell-based, Homo sapiens; conditions: Homo sapiens, TE-5;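 further: inhibition of cell growth, read out by a cell viability assay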
Description: SANGER: Inhibition of human TE-5 cell growth in a cell viability assay.

[34] = test system: SAOS-2; type: functional, cell-based, Homo sapiens; conditions: Homo sapiens, SAOS-2;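 further: growth inhibition of human Saos-2 cells determined by a cell viability assay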
Description: SANGER: Inhibition of human Saos-2 cell growth in a cell viability assay.

[35] = test system: TE-9; type: functional, cell-based, Homo sapiens; conditions: Homo sapiens, TE-9;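 further: cell growth inhibition, measured with a cell viability readout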
Description: SANGER: Inhibition of human TE-9 cell growth in a cell viability assay.

[36] = test system: NY; type: functional, cell-based, Homo sapiens; conditions: Homo sapiens, NY
Description: SANGER: Inhibition of human NY cell growth in a cell viability assay.

[37] = test system: NCI-H810; type: functional, cell-based, Homo sapiens; conditions: Homo sapiens, NCI-H810;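 further: IC50 reflects inhibition of cancer cell line growth, read out with a cell viability assay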
Description: SANGER: Inhibition of human NCI-H810 cell growth in a cell viability assay.

[38] = test system: MEL-HO; type: functional, cell-based, Homo sapiens; conditions: Homo sapiens, MEL-HO
Description: SANGER: Inhibition of human MEL-HO cell growth in a cell viability assay.

[39] = test system: OCI-AML2; type: functional, cell-based; conditions: Homo sapiens;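 further: growth inhibition of OCI-AML2 cells, read out with a cell viability assay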
Description: SANGER: Inhibition of human OCI-AML2 cell growth in a cell viability assay.

[40] = test system: CAL-72; type: functional, cell-based, Homo sapiens; conditions: Homo sapiens, CAL-72;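 further: cell viability assay measuring inhibition of proliferation in the CAL-72 cell line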
Description: SANGER: Inhibition of human CAL-72 cell growth in a cell viability assay.

[41] = test system: KYSE-450; type: functional, cell-based; conditions: Homo sapiens;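 further: cell growth inhibition measured by a viability assay in human KYSE-450 cells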
Description: SANGER: Inhibition of human KYSE-450 cell growth in a cell viability assay.

[42] = test system: COLO-824; type: functional, cell-based, Homo sapiens; conditions: Homo sapiens, COLO-824
Description: SANGER: Inhibition of human COLO-824 cell growth in a cell viability assay.

[43] = test system: EFO-27; type: functional, cell-based, Homo sapiens; conditions: Homo sapiens, EFO-27;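 further: growth inhibition of EFO-27 cells, read out with a cell viability assay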
Description: SANGER: Inhibition of human EFO-27 cell growth in a cell viability assay.

[44] = test system: TK-10; type: functional, cell-based, Homo sapiens; conditions: Homo sapiens, TK-10;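 further: growth inhibition of TK-10 cells, read out in a cell viability assay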
Description: SANGER: Inhibition of human TK10 cell growth in a cell viability assay.

[45] = test system: RVH-421; type: functional, cell-based, Homo sapiens; conditions: Homo sapiens, RVH-421
Description: SANGER: Inhibition of human RVH-421 cell growth in a cell viability assay.

[46] = test system: BB30-HNC; type: functional, cell-based, Homo sapiens; conditions: Homo sapiens, BB30-HNC;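 further: growth inhibition of the cultured cell line, read out by a cell viability assay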
Description: SANGER: Inhibition of human BB30-HNC cell growth in a cell viability assay.

[47] = test system: MZ7-mel; type: functional, cell-based, Homo sapiens; conditions: Homo sapiens, MZ7-mel;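 further: growth inhibition of human MZ7-mel cells, measured by a cell viability assay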
Description: SANGER: Inhibition of human MZ7-mel cell growth in a cell viability assay.

[48] = test system: DU-145; type: functional, cell-based, Homo sapiens; conditions: Homo sapiens, DU-145
Description: SANGER: Inhibition of human DU-145 cell growth in a cell viability assay.

[49] = test system: HH; type: functional, cell-based; conditions: Homo sapiens
Description: SANGER: Inhibition of human HH cell growth in a cell viability assay.

[50] = test system: RPMI-2650; type: functional, cell-based, Homo sapiens; conditions: Homo sapiens, RPMI-2650
Description: SANGER: Inhibition of human RPMI-2650 cell growth in a cell viability assay.

[51] = test system: NCI-H1648; type: functional, cell-based, Homo sapiens; conditions: Homo sapiens, NCI-H1648;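 further: cell viability assay measuring inhibition of NCI-H1648 cell growth, from the Sanger screening data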
Description: SANGER: Inhibition of human NCI-H1648 cell growth in a cell viability assay.

CN(c1ncccc1CNc1nc(Nc2ccc3c(c2)CC(=O)N3)ncc1C(F)(F)F)S(C)(=O)=O [PF-00562271]
IC50 [1]: > 2.56 µM | IC50 [2]: > 2.56 µM | IC50 [3]: > 2.56 µM | IC50 [4]: > 2.56 µM | IC50 [5]: > 2.56 µM | IC50 [6]: > 2.56 µM | IC50 [7]: > 2.56 µM | IC50 [8]: > 2.56 µM | IC50 [9]: > 2.56 µM | IC50 [10]: > 2.56 µM | IC50 [11]: 2.53 µM | IC50 [12]: > 2.56 µM | IC50 [13]: > 2.56 µM | IC50 [14]: > 2.56 µM | IC50 [15]: > 2.56 µM | IC50 [16]: > 2.56 µM | IC50 [17]: > 2.56 µM | IC50 [18]: > 2.56 µM | IC50 [19]: > 2.56 µM | IC50 [20]: > 2.56 µM | IC50 [21]: > 2.56 µM | IC50 [22]: > 2.56 µM | IC50 [23]: > 2.56 µM | IC50 [24]: > 2.56 µM | IC50 [25]: > 2.56 µM | IC50 [26]: > 2.56 µM | IC50 [27]: > 2.56 µM | IC50 [28]: > 2.56 µM | IC50 [29]: > 2.56 µM | IC50 [30]: > 2.56 µM | IC50 [31]: > 2.56 µM | IC50 [32]: > 2.56 µM | IC50 [33]: > 2.56 µM | IC50 [34]: > 2.56 µM | IC50 [35]: > 2.56 µM | IC50 [36]: > 2.56 µM | IC50 [37]: 1.11 µM | IC50 [38]: 1.98 µM | IC50 [39]: > 2.56 µM | IC50 [40]: > 2.56 µM | IC50 [41]: > 2.56 µM | IC50 [42]: > 2.56 µM | IC50 [43]: 2.52 µM | IC50 [44]: > 2.56 µM | IC50 [45]: > 2.56 µM | IC50 [46]: > 2.56 µM | IC50 [47]: > 2.56 µM | IC50 [48]: 2.49 µM | IC50 [49]: > 2.56 µM | IC50 [50]: > 2.56 µM | IC50 [51]: > 2.56 µM

Cn1cncc1[C@@](N)(c1ccc(Cl)cc1)c1ccc2c(c1)c(-c1cccc(Cl)c1)cc(=O)n2C [TIPIFARNIB]
IC50 [1]: 4.17 µM | IC50 [2]: > 16 µM | IC50 [3]: 2.54 µM | IC50 [4]: 10.7 µM | IC50 [5]: > 16 µM | IC50 [6]: > 16 µM | IC50 [7]: 1.11 µM | IC50 [8]: 12.6 µM | IC50 [9]: > 16 µM | IC50 [10]: 7.61 µM | IC50 [11]: 7.06 µM | IC50 [12]: > 16 µM | IC50 [13]: 10.1 µM | IC50 [14]: 4.45 µM | IC50 [15]: > 16 µM | IC50 [16]: > 16 µM | IC50 [17]: 1.1 µM | IC50 [18]: 0.38 µM | IC50 [19]: 11.5 µM | IC50 [20]: > 16 µM | IC50 [21]: > 16 µM | IC50 [22]: > 16 µM | IC50 [23]: > 16 µM | IC50 [24]: > 16 µM | IC50 [25]: 3.18 µM | IC50 [26]: 3.3 µM | IC50 [27]: 4.82 µM | IC50 [28]: > 16 µM | IC50 [29]: > 16 µM | IC50 [30]: > 16 µM | IC50 [31]: 8.38 µM | IC50 [32]: > 16 µM | IC50 [33]: 11.9 µM | IC50 [34]: > 16 µM | IC50 [35]: > 16 µM | IC50 [36]: 1.93 µM | IC50 [37]: 1.63 µM | IC50 [38]: 2.24 µM | IC50 [39]: 2.03 µM | IC50 [40]: 4.95 µM | IC50 [41]: 0.729 µM | IC50 [42]: > 16 µM | IC50 [43]: 0.714 µM | IC50 [44]: 5.68 µM | IC50 [45]: > 16 µM | IC50 [46]: 0.585 µM | IC50 [47]: 0.722 µM | IC50 [48]: 8.66 µM | IC50 [49]: 0.191 µM | IC50 [50]: 8.29 µM | IC50 [51]: 2.56 µM

CCC1=C[C@@H]2CN(C1)Cc1c([nH]c3ccccc13)[C@@](C(=O)OC)(c1cc3c(cc1OC)N(C)[C@H]1[C@@](O)(C(=O)OC)[C@H](OC(C)=O)[C@]4(CC)C=CCN5CC[C@]31[C@@H]54)C2 [VINORELBINE]
IC50 [1]: 0.013 µM | IC50 [2]: > 0.064 µM | IC50 [3]: 0.00194 µM | IC50 [4]: 0.0194 µM | IC50 [5]: > 0.064 µM | IC50 [6]: > 0.064 µM | IC50 [7]: > 0.064 µM | IC50 [8]: 0.0212 µM | IC50 [9]: 0.017 µM | IC50 [10]: 0.0139 µM | IC50 [11]: 0.0102 µM | IC50 [12]: 0.0304 µM | IC50 [13]: 0.0139 µM | IC50 [14]: 0.0066 µM | IC50 [15]: > 0.064 µM | IC50 [16]: 0.0334 µM | IC50 [17]: 0.00317 µM | IC50 [18]: 0.00478 µM | IC50 [19]: 0.0179 µM | IC50 [20]: > 0.064 µM | IC50 [21]: 0.0159 µM | IC50 [22]: 0.0606 µM | IC50 [23]: > 0.064 µM | IC50 [24]: 0.0159 µM | IC50 [25]: 0.0188 µM | IC50 [26]: 0.00688 µM | IC50 [27]: > 0.064 µM | IC50 [28]: > 0.064 µM | IC50 [29]: 0.0427 µM | IC50 [30]: 0.00553 µM | IC50 [31]: 0.0485 µM | IC50 [32]: 0.019 µM | IC50 [33]: 0.0117 µM | IC50 [34]: > 0.064 µM | IC50 [35]: 0.00108 µM | IC50 [36]: 0.00812 µM | IC50 [37]: 0.00391 µM | IC50 [38]: 0.00329 µM | IC50 [39]: 0.0103 µM | IC50 [40]: > 0.064 µM | IC50 [41]: 0.00974 µM | IC50 [42]: 0.0472 µM | IC50 [43]: 0.00579 µM | IC50 [44]: > 0.064 µM | IC50 [45]: 0.00388 µM | IC50 [46]: 0.000399 µM | IC50 [47]: 0.0102 µM | IC50 [48]: 0.00481 µM | IC50 [49]: 0.00888 µM | IC50 [50]: 0.01 µM | IC50 [51]: 0.00392 µM
